Organism: Rattus norvegicus
Assay: DrugMatrix - Regimen: Daily Repeat
Assay type: toxicity, organism-based, Sprague-Dawley
Set-up: regimen Daily Repeat, gender Male, age 6-8 weeks
Settings: in vivo, po, route oral GAVAGE, […]; for ABSOLUTE BASOPHIL / ABSOLUTE EOSINOPHIL / BASOPHIL / EOSINOPHIL / NUCLEATED RED BLOOD CELLS / ABSOLUTE LYMPHOCYTE / ABSOLUTE MONOCYTE / ABSOLUTE SEGMENTED NEUTROPHIL / ERYTHROCYTE COUNT / HEMATOCRIT / HEMOGLOBIN / LEUKOCYTE COUNT / LYMPHOCYTE / MEAN CORPUSCULAR HEMOGLOBIN / MEAN CORPUSCULAR HEMOGLOBIN CONCENTRATION / MEAN CORPUSCULAR VOLUME / MONOCYTE / NEUTROPHIL / PLATELET COUNT: tissue Blood; for ALANINE AMINOTRANSFERASE / ALBUMIN / ALKALINE PHOSPHATASE / ASPARTATE AMINOTRANSFERASE / BLOOD UREA NITROGEN / CARBON DIOXIDE / CHLORIDE / CHOLESTEROL / CREATINE PHOSPHOKINASE / CREATININE / GLUCOSE / LACTATE DEHYDROGENASE / LIPASE / PHOSPHORUS / POTASSIUM / SODIUM / TOTAL BILIRUBIN / TOTAL PROTEIN / URIC ACID: tissue Plasma
[1] = 0 mg/kg, 72 h, dose level Control, time 3 day
[2] = 0 mg/kg, 120 h, dose level Control, time 5 day
[3] = 0.08 mg/kg, 72 h, dose level Low, time 3 day
[4] = 0.08 mg/kg, 120 h, dose level Low, time 5 day
[5] = 12 mg/kg, 72 h, dose level M1, time 3 day

C#C[C@]1(O)CC[C@H]2[C@@H]3CCC4=CC(=O)CC[C@@H]4[C@H]3CC[C@@]21C [NORETHINDRONE]
ABSOLUTE BASOPHIL [1]: 0 CELLS/uL
ABSOLUTE EOSINOPHIL [1]: 14 CELLS/uL
BASOPHIL [1]: 0%
EOSINOPHIL [1]: 0.17%
NUCLEATED RED BLOOD CELLS [1]: 0 /100WBC
ABSOLUTE BASOPHIL [2]: 0 CELLS/uL
BASOPHIL [2]: 0%
ABSOLUTE BASOPHIL [3]: 0 CELLS/uL
ABSOLUTE EOSINOPHIL [3]: 0 CELLS/uL
ABSOLUTE LYMPHOCYTE [3]: 8095 CELLS/uL
ABSOLUTE MONOCYTE [3]: 0 CELLS/uL
ABSOLUTE SEGMENTED NEUTROPHIL [3]: 538.33 CELLS/uL
BASOPHIL [3]: 0%
EOSINOPHIL [3]: 0%
ERYTHROCYTE COUNT [3]: 4.99 x10E6/uL
HEMATOCRIT [3]: 31.97%
HEMOGLOBIN [3]: 12.7 G/DL
LEUKOCYTE COUNT [3]: 8.63 x10E3/uL
LYMPHOCYTE [3]: 94.33%
MEAN CORPUSCULAR HEMOGLOBIN [3]: 25.5 pg
MEAN CORPUSCULAR HEMOGLOBIN CONCENTRATION [3]: 39.77 G/DL
MEAN CORPUSCULAR VOLUME [3]: 64.07 fL
MONOCYTE [3]: 0%
NEUTROPHIL [3]: 5.67%
NUCLEATED RED BLOOD CELLS [3]: 0 /100WBC
PLATELET COUNT [3]: 1042.33 x10E3/uL
ALANINE AMINOTRANSFERASE [3]: 76.33 u/L
ALBUMIN [3]: 4.1 G/DL
ALKALINE PHOSPHATASE [3]: 395.67 u/L
ASPARTATE AMINOTRANSFERASE [3]: 84.33 u/L
BLOOD UREA NITROGEN [3]: 13 mg/dL
CARBON DIOXIDE [3]: 28 mmol/L
CHLORIDE [3]: 101 MEQ/L
CHOLESTEROL [3]: 81 mg/dL
CREATINE PHOSPHOKINASE [3]: 236 u/L
CREATININE [3]: 0.17 mg/dL
GLUCOSE [3]: 185.33 mg/dL
LACTATE DEHYDROGENASE [3]: 127 u/L
LIPASE [3]: 24.67 u/L
PHOSPHORUS [3]: 9.57 mg/dL
POTASSIUM [3]: 5.52 MEQ/L
SODIUM [3]: 144.63 MEQ/L
TOTAL BILIRUBIN [3]: 0.1 mg/dL
TOTAL PROTEIN [3]: 5.67 G/DL
URIC ACID [3]: 0.77 mg/dL
ABSOLUTE BASOPHIL [4]: 0 CELLS/uL
ABSOLUTE EOSINOPHIL [4]: 0 CELLS/uL
ABSOLUTE LYMPHOCYTE [4]: 11824 CELLS/uL
ABSOLUTE MONOCYTE [4]: 160 CELLS/uL
ABSOLUTE SEGMENTED NEUTROPHIL [4]: 1549.33 CELLS/uL
BASOPHIL [4]: 0%
EOSINOPHIL [4]: 0%
ERYTHROCYTE COUNT [4]: 5.24 x10E6/uL
HEMATOCRIT [4]: 32.97%
HEMOGLOBIN [4]: 13 G/DL
LEUKOCYTE COUNT [4]: 13.53 x10E3/uL
LYMPHOCYTE [4]: 87%
MEAN CORPUSCULAR HEMOGLOBIN [4]: 24.87 pg
MEAN CORPUSCULAR HEMOGLOBIN CONCENTRATION [4]: 39.43 G/DL
MEAN CORPUSCULAR VOLUME [4]: 63.07 fL
MONOCYTE [4]: 1%
NEUTROPHIL [4]: 12%
NUCLEATED RED BLOOD CELLS [4]: 0 /100WBC
PLATELET COUNT [4]: 1265.67 x10E3/uL
ALANINE AMINOTRANSFERASE [4]: 76 u/L
ALBUMIN [4]: 4.27 G/DL
ALKALINE PHOSPHATASE [4]: 393 u/L
ASPARTATE AMINOTRANSFERASE [4]: 91.67 u/L
BLOOD UREA NITROGEN [4]: 10.67 mg/dL
CARBON DIOXIDE [4]: 30 mmol/L
CHLORIDE [4]: 98 MEQ/L
CHOLESTEROL [4]: 68 mg/dL
CREATINE PHOSPHOKINASE [4]: 173 u/L
CREATININE [4]: 0.12 mg/dL
GLUCOSE [4]: 150.67 mg/dL
LACTATE DEHYDROGENASE [4]: 80.33 u/L
LIPASE [4]: 33.67 u/L
PHOSPHORUS [4]: 9.53 mg/dL
POTASSIUM [4]: 5.88 MEQ/L
SODIUM [4]: 144.2 MEQ/L
TOTAL BILIRUBIN [4]: 0.1 mg/dL
TOTAL PROTEIN [4]: 5.83 G/DL
URIC ACID [4]: 0.63 mg/dL
ABSOLUTE BASOPHIL [5]: 0 CELLS/uL
ABSOLUTE EOSINOPHIL [5]: 0 CELLS/uL
ABSOLUTE LYMPHOCYTE [5]: 6372.33 CELLS/uL
ABSOLUTE MONOCYTE [5]: 130.67 CELLS/uL
ABSOLUTE SEGMENTED NEUTROPHIL [5]: 463.67 CELLS/uL
BASOPHIL [5]: 0%
EOSINOPHIL [5]: 0%
ERYTHROCYTE COUNT [5]: 5.18 x10E6/uL
HEMATOCRIT [5]: 32.47%
HEMOGLOBIN [5]: 12.27 G/DL
LEUKOCYTE COUNT [5]: 6.97 x10E3/uL
LYMPHOCYTE [5]: 90.33%
MEAN CORPUSCULAR HEMOGLOBIN [5]: 23.7 pg
MEAN CORPUSCULAR HEMOGLOBIN CONCENTRATION [5]: 37.8 G/DL
MEAN CORPUSCULAR VOLUME [5]: 62.77 fL
MONOCYTE [5]: 1.67%
NEUTROPHIL [5]: 8%
NUCLEATED RED BLOOD CELLS [5]: 0 /100WBC
PLATELET COUNT [5]: 1187.33 x10E3/uL
ALANINE AMINOTRANSFERASE [5]: 50 u/L
ALBUMIN [5]: 4.47 G/DL
ALKALINE PHOSPHATASE [5]: 371.33 u/L
ASPARTATE AMINOTRANSFERASE [5]: 87.67 u/L
BLOOD UREA NITROGEN [5]: 11.33 mg/dL
CARBON DIOXIDE [5]: 34 mmol/L
CHLORIDE [5]: 101.67 MEQ/L
CHOLESTEROL [5]: 32.67 mg/dL
CREATINE PHOSPHOKINASE [5]: 431.33 u/L
CREATININE [5]: 0.19 mg/dL
GLUCOSE [5]: 136.67 mg/dL
LACTATE DEHYDROGENASE [5]: 119.33 u/L
LIPASE [5]: 8.67 u/L
PHOSPHORUS [5]: 11.1 mg/dL
POTASSIUM [5]: 5.95 MEQ/L

Source: ChEMBL document CHEMBL3885881, “DrugMatrix”
